# Data published in patent US8198273B2, “Compounds and methods for kinase modulation, and indications therefor” (Plexxikon Inc., priority 2009, dated 2012).
# Columns and labels:
# [1] = system: A375 melanoma cells (B-Raf V600E); experiment: A375 cell growth inhibition (ATPlite); format: cell-based; settings: Homo sapiens, A-375, 72 h; A375, 3 days incubation
# Procedure, shortened: (§1)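 Cells plated overnight, then exposed 3 days at 37° C to 8-point 1:3 compound dilutions topping at 10 μM final. Viability read as ATPlite luminescence, proportional to cell number; IC50 from luminescence versus concentration.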
# CYP2C19 = CYP2C19 (Homo sapiens, UniProt P33261); experiment: CYP2C19 inhibition (fluorescent substrate); format: in vitro ADME; settings: CYP2C19, CEC substrate; read-out: Cyp IC50 2C19
# Chain of CYP2C19 (P33261 whole entry): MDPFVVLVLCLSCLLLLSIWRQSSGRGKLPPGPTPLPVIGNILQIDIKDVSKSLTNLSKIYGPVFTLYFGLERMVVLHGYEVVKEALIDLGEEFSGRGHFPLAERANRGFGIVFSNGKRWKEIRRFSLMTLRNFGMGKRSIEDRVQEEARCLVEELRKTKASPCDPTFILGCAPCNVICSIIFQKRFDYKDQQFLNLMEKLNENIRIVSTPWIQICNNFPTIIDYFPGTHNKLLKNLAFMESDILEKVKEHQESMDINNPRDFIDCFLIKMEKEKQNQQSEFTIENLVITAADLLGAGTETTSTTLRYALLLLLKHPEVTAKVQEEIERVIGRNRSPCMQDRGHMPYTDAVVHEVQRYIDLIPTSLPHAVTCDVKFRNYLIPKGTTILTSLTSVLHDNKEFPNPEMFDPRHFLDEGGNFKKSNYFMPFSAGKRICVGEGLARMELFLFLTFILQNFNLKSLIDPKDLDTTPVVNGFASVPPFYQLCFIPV
# Procedure, shortened: (§2)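 IC50 values come from plotting product fluorescence against compound concentration; inhibition lowers formation of the fluorescent metabolite. Ten-point twofold dilutions in co-factor mix were held 10 minutes at 37 °C before the enzyme reaction, also run at 37 °C.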
# CYP1A2 = biological target: T1, CYP1A2 (Homo sapiens, UniProt P05177); experiment: CYP1A2 inhibition (fluorescent substrate); format: in vitro ADME; settings: CYP1A2, CEC substrate; read-out: Cyp IC50 1A2
# T1 sequence (P05177 1-516): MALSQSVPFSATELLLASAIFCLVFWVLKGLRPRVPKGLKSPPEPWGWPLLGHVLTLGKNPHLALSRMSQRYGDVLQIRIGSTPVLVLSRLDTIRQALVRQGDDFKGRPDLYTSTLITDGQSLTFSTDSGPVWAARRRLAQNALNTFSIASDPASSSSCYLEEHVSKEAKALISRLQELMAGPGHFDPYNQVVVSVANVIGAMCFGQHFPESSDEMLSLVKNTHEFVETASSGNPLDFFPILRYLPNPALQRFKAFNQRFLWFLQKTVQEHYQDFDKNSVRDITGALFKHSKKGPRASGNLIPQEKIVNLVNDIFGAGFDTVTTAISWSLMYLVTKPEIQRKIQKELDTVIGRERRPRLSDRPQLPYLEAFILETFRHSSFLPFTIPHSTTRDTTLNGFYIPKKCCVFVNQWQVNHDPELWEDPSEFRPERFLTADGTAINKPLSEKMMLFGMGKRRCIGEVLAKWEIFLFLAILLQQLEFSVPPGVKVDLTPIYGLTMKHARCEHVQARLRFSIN
# Procedure, shortened: as §2
# [2] = system: COLO205 colon adenocarcinoma cells (B-Raf V600E); experiment: COLO205 cell growth inhibition (ATPlite); format: cell-based; settings: Homo sapiens, COLO 205, 72 h; COLO205, 3 days incubation
# Procedure, shortened: as §1
# CYP2D6 = CYP2D6 (Homo sapiens, UniProt P10635); experiment: CYP2D6 inhibition (fluorescent substrate); format: in vitro ADME; settings: CYP2D6, AMMC substrate; read-out: Cyp IC50 2D6
# Chain of CYP2D6 (P10635 whole entry): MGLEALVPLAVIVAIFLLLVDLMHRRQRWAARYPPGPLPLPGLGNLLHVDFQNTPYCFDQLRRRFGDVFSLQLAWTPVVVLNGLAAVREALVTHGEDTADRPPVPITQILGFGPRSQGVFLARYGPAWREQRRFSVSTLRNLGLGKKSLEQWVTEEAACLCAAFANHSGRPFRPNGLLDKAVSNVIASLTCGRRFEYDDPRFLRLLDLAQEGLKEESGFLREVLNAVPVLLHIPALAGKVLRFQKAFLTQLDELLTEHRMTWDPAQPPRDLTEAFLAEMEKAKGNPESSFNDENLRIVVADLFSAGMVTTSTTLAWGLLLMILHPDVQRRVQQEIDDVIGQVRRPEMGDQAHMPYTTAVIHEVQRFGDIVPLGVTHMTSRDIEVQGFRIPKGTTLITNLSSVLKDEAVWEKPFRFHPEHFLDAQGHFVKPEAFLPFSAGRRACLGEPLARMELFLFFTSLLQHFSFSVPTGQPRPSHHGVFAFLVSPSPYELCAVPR
# Procedure, shortened: as §2
SMILES,IC50 [1] [µM],IC50 (CYP2C19) [µM],IC50 (CYP1A2) [µM],IC50 [2] [µM],IC50 (CYP2D6) [µM]
"N#Cc1cnc2[nH]cc(C(=O)c3cccc(NS(=O)(=O)c4cc(F)ccc4F)c3F)c2c1 [P-2052, N-[3-(5-Cyano-1H-pyrrolo[2,3-b]pyridine-3-carbonyl)-2-fluoro-phenyl]-2,5-difluoro-benzenesulfonamide]",< 1,> 10,> 10,< 1,> 10
"N#Cc1cnc2[nH]cc(C(=O)c3cccc(NS(=O)(=O)c4cccc(F)c4)c3F)c2c1 [P-2053, N-[3-(5-Cyano-1H-pyrrolo[2,3-b]pyridine-3-carbonyl)-2-fluoro-phenyl]-3-fluoro-benzenesulfonamide]",< 5,> 10,> 10,< 1,> 10
"N#Cc1cnc2[nH]cc(C(=O)c3cccc(NS(=O)(=O)c4ccccc4)c3F)c2c1 [P-2056, N-[3-(5-Cyano-1H-pyrrolo[2,3-b]pyridine-3-carbonyl)-2-fluoro-phenyl]-benzenesulfonamide]",< 5,> 10,> 10,< 5,> 10
"Cc1cnc2[nH]cc(C(=O)c3c(F)ccc(NS(=O)(=O)c4cccnc4)c3F)c2c1 [P-2069, Pyridine-3-sulfonic acid [2,4-difluoro-3-(5-methyl-1H-pyrrolo[2,3-b]pyridine-3-carbonyl)-phenyl]-amide]",< 5,> 10,> 10,< 1,> 10
"N#Cc1cnc2[nH]cc(C(=O)c3c(F)ccc(NS(=O)(=O)c4cccnc4)c3F)c2c1 [P-2072, Pyridine-3-sulfonic acid [3-(5-cyano-1H-pyrrolo[2,3-b]pyridine-3-carbonyl)-2,4-difluoro-phenyl]-amide]",< 5,> 10,> 10,< 5,> 10
"COc1ccnc2[nH]cc(C(=O)c3c(F)ccc(NS(=O)(=O)c4cccnc4)c3F)c12 [P-2073, Pyridine-3-sulfonic acid [2,4-difluoro-3-(4-methoxy-1H-pyrrolo[2,3-b]pyridine-3-carbonyl)-phenyl]-amide]",< 10,> 10,> 10,< 10,> 10
"CCCS(=O)(=O)Nc1ccc(F)c(C(=O)c2c[nH]c3ncc(-c4ccc(C(=O)NCC)nc4)cc23)c1F [P-2151, 5-{3-[2,6-Difluoro-3-(propane-1-sulfonylamino)-benzoyl]-1H-pyrrolo[2,3-b]pyridin-5-yl}-pyridine-2-carboxylic acid ethylamide]",< 1,> 10,> 10,< 1,> 10
"CCCS(=O)(=O)Nc1ccc(F)c(C(=O)c2c[nH]c3ncc(-c4ccc(Cl)nc4)cc23)c1F [P-2154, Propane-1-sulfonic acid {3-[5-(6-chloro-pyridin-3-yl)-1H-pyrrolo[2,3-b]pyridine-3-carbonyl]-2,4-difluoro-phenyl}-amide]",< 1,5 to 10,> 10,< 1,> 10
"CCCS(=O)(=O)Nc1ccc(F)c(C(=O)c2c[nH]c3ncc(-c4ccc(F)nc4)cc23)c1F [P-2155, Propane-1-sulfonic acid {2,4-difluoro-3-[5-(6-fluoro-pyridin-3-yl)-1H-pyrrolo[2,3-b]pyridine-3-carbonyl]-phenyl}-amide]",< 1,5 to 10,> 10,< 1,> 10
"CCCS(=O)(=O)Nc1ccc(F)c(C(=O)c2c[nH]c3ncc(-c4cncnc4)cc23)c1F [P-2162, Propane-1-sulfonic acid [2,4-difluoro-3-(5-pyrimidin-5-yl-1H-pyrrolo[2,3-b]pyridine-3-carbonyl)-phenyl]-amide]",< 1,> 10,< 5,< 1,> 10
"CCCS(=O)(=O)Nc1ccc(F)c(C(=O)c2c[nH]c3ncc(-c4ccc(NS(C)(=O)=O)cc4)cc23)c1F [P-2165, Propane-1-sulfonic acid {2,4-difluoro-3-[5-(4-methanesulfonylamino-phenyl)-1H-pyrrolo[2,3-b]pyridine-3-carbonyl]-phenyl}-amide]",< 1,5 to 10,> 10,< 1,> 10
"CCCS(=O)(=O)Nc1ccc(F)c(C(=O)c2c[nH]c3ncc(-c4ccc(S(=O)(=O)N5CCOCC5)cc4)cc23)c1F [P-2166, Propane-1-sulfonic acid (2,4-difluoro-3-{5-[4-(morpholine-4-sulfonyl)-phenyl]-1H-pyrrolo[2,3-b]pyridine-3-carbonyl}-phenyl)-amide]",< 1,> 10,> 10,< 0.1,> 10
"CCCS(=O)(=O)Nc1ccc(F)c(C(=O)c2c[nH]c3ncc(-c4ccc(S(=O)(=O)NC)cc4)cc23)c1F [P-2167, 4-{3-[2,6-Difluoro-3-(propane-1-sulfonylamino)-benzoyl]-1H-pyrrolo[2,3-b]pyridin-5-yl}-N-methyl-benzenesulfonamide]",< 1,5 to 10,> 10,< 0.1,> 10
"CCCS(=O)(=O)Nc1ccc(F)c(C(=O)c2c[nH]c3ncc(-c4ccc(S(=O)(=O)NC5CC5)cc4)cc23)c1F [P-2168, N-Cyclopropyl-4-{3-[2,6-difluoro-3-(propane-1-sulfonylamino)-benzoyl]-1H-pyrrolo[2,3-b]pyridin-5-yl}-benzenesulfonamide]",< 1,5 to 10,> 10,< 0.1,> 10
"CCCS(=O)(=O)Nc1ccc(F)c(C(=O)c2c[nH]c3ncc(-c4cn[nH]c4)cc23)c1F [P-2174, Propane-1-sulfonic acid {2,4-difluoro-3-[5-(1H-pyrazol-4-yl)-1H-pyrrolo[2,3-b]pyridine-3-carbonyl]-phenyl}-amide]",< 1,5 to 10,> 10,< 1,5 to 10
"CCCS(=O)(=O)Nc1ccc(F)c(C(=O)c2c[nH]c3ncc(-c4cnn(CCN5CCOCC5)c4)cc23)c1F [P-2177, Propane-1-sulfonic acid (2,4-difluoro-3-{5-[1-(2-morpholin-4-yl-ethyl)-1H-pyrazol-4-yl]-1H-pyrrolo[2,3-b]pyridine-3-carbonyl}-phenyl)-amide]",< 1,5 to 10,> 10,< 0.1,> 10
"CCCS(=O)(=O)Nc1ccc(F)c(C(=O)c2c[nH]c3ncc(-c4ccc(OCCCN(C)C)nc4)cc23)c1F [P-2178, Propane-1-sulfonic acid (3-{5-[6-(3-dimethylamino-propoxy)-pyridin-3-yl]-1H-pyrrolo[2,3-b]pyridine-3-carbonyl}-2,4-difluoro-phenyl)-amide]",< 0.1,5 to 10,> 10,< 0.1,> 10
"CCCS(=O)(=O)Nc1ccc(F)c(C(=O)c2c[nH]c3ncc(-c4ccc(S(C)(=O)=O)cc4)cc23)c1F [P-2183, Propane-1-sulfonic acid {2,4-difluoro-3-[5-(4-methanesulfonyl-phenyl)-1H-pyrrolo[2,3-b]pyridine-3-carbonyl]-phenyl}-amide]",< 0.1,5 to 10,> 10,< 0.1,> 10
"CCCS(=O)(=O)Nc1ccc(F)c(C(=O)c2c[nH]c3ncc(-c4ccc(S(=O)(=O)N(C)C)cc4)cc23)c1F [P-2185, 4-{3-[2,6-Difluoro-3-(propane-1-sulfonylamino)-benzoyl]-1H-pyrrolo[2,3-b]pyridin-5-yl}-N,N-dimethyl-benzenesulfonamide]",< 0.1,> 10,> 10,< 0.1,> 10
"CCCS(=O)(=O)Nc1ccc(F)c(C(=O)c2c[nH]c3ncc(-c4ccc(SC)nc4)cc23)c1F [P-2187, Propane-1-sulfonic acid {2,4-difluoro-3-[5-(6-methylsulfanyl-pyridin-3-yl)-1H-pyrrolo[2,3-b]pyridine-3-carbonyl]-phenyl}-amide]",< 1,> 10,> 10,< 1,> 10
